Experiment [1] deals with T1, F508delCFTR (Homo sapiens, UniProt P13569, DEL508-508).
T1 construct: expressed in transfected cells; host or cells: CFBE41o- human lung-derived epithelial cells (CFBE41o-F508delCFTR-HRP), doxycycline-inducible
In words: Cell Surface Expression-Horse Radish Peroxidase (CSE-HRP) assay, test compound without co-corrector.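 On Emax: percent of on-plate 2 µM positive control corrector response over DMSO.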 The experiment is classed as cell-based. To be noted: for Emax: maximum at any tested concentration, without co-corrector; for EC50: test compound without co-corrector. In outline: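 Compound without co-corrector was tested at eight 3-fold concentrations, top 20 μM, for 18-24 h at 33° C on doxycycline-induced (0.5 μg/mL, 72 h) CFBE41o- F508delCFTR-HRP cells. After DPBS washes, luminol luminescence gave % activity relative to on-plate positive control minus DMSO; EC50 came from triplicate-plate sigmoidal fitting.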

Experiment [2] addresses T1, F508delCFTR. In words: Cell Surface Expression-Horse Radish Peroxidase (CSE-HRP) assay, test compound with co-corrector.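 On Maximum % activity (with co-corrector): percent of 2 µM positive control corrector over DMSO; co-corrector is that same compound.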 It counts as cell-based. The conditions noted are these: for Maximum % activity (with co-corrector): maximum at any tested concentration. In outline: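 Surface-expression read-out: luminol luminescence from an HRP tag in the fourth exofacial loop of F508delCFTR, in doxycycline-induced (0.5 μg/mL, 72 h) CFBE41o- cells. Compound plus 2 μM co-corrector added for 18-24 h at 33° C., 8-point 3-fold series up to 20 μM. EC50 from a sigmoidal fit with variable Hill slope, normalised to positive control, triplicate plates.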

The mark [3] stands for this setting: normalized to positive control, with 2 μM co-corrector.
[4] abbreviates: normalized to on-plate positive control.
[5] abbreviates: CSE-HRP assay, test compound with 2 μM co-corrector.
Where [6] appears, read: normalized to on-plate positive control, with 2 μM co-corrector.

From US20180244611A1, “Modulators of the Cystic Fibrosis Transmembrane Conductance Regulator Protein and Methods of Use” (AbbVie S.à.r.l., priority 2017, published 2018) come the findings set out here.

As a reminder, the Emax is the size of the effect at its maximum, as opposed to the concentration needed. A word on the EC50: it is the concentration that produces a half-maximal response.

Structures are written as SMILES. Bounds are passed on as bounds.

T1 sequence (P13569 with tags, fused parts or gaps DEL508-508): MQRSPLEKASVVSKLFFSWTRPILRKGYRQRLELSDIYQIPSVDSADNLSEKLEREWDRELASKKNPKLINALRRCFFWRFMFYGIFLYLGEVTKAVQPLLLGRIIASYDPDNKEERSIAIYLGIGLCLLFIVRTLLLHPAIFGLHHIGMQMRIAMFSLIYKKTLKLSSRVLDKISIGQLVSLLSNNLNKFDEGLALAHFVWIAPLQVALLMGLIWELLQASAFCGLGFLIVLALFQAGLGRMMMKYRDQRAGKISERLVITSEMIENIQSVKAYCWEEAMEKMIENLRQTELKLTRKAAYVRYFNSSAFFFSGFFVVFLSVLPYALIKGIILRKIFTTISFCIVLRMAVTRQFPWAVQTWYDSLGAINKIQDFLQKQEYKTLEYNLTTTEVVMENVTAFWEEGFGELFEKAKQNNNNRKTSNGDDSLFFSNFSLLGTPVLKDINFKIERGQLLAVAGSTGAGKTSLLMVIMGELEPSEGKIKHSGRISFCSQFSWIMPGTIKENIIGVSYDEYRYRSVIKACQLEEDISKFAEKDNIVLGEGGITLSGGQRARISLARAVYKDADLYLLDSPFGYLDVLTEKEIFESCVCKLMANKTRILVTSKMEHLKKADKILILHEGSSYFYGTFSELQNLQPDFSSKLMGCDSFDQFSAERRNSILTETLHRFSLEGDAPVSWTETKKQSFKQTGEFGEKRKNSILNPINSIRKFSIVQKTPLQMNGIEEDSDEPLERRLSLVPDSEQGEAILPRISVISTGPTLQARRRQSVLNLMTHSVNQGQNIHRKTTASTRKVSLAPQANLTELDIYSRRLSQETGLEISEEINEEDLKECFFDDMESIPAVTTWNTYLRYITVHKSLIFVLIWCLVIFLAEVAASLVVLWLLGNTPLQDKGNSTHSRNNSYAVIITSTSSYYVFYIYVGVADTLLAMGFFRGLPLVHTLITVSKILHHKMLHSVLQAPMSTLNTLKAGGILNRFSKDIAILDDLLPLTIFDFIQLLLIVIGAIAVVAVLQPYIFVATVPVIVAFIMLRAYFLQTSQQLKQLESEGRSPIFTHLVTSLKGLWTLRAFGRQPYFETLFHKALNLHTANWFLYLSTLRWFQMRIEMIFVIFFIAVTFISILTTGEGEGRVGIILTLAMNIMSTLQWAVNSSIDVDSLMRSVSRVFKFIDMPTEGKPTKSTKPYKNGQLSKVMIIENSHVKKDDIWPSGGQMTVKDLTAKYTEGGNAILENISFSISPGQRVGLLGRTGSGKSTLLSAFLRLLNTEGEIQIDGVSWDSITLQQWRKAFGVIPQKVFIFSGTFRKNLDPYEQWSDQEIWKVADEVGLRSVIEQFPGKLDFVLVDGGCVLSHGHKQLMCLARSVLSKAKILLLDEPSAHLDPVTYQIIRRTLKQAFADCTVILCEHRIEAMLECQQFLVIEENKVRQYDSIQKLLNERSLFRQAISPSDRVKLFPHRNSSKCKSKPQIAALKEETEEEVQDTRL

For `COc1cccc2c1CCC2C(=O)NS(=O)(=O)c1ccc(F)cc1F` (centres unmarked) [III-77], the Emax on F508delCFTR [1] (normalized to positive control) was less than 50%. Also, the EC50 at F508delCFTR [1] and at F508delCFTR [2] (with 2 μM co-corrector) was not below 10 µM each time. In addition, at F508delCFTR [2] (setting [3]), the “Maximum % activity (with co-corrector)” value is on record as “+ (<150)”.

In the case of `COCCn1cc(S(=O)(=O)NC(=O)C2CCc3c(OC)cccc32)cn1` (centres unmarked) [III-78], at F508delCFTR [1] (normalized to positive control), the Emax is less than 50%. Besides, the EC50 at F508delCFTR [1] and on F508delCFTR [2] (with 2 μM co-corrector) was not below 10 µM throughout. Moreover, the “Maximum % activity (with co-corrector)” value on F508delCFTR [2] (setting [3]) is given as “+ (<150)”.

On F508delCFTR [1] (normalized to positive control), `COc1cccc2c1CCC2C(=O)NS(=O)(=O)c1c(C)noc1C` (centres unmarked) [III-79] returned a maximum response (Emax) of less than 50%. The concentration giving a half-maximal response (EC50) on F508delCFTR [1] and on F508delCFTR [2] (with 2 μM co-corrector) was not below 10 µM each time. Further, on F508delCFTR [2] (setting [3]), the “Maximum % activity (with co-corrector)” value was “+ (<150)”.

For `COc1cccc2c1CCC2C(=O)NS(=O)(=O)c1sc(C)nc1C` (centres unmarked) [III-80], the Emax on F508delCFTR [1] (normalized to positive control) is less than 50%. For the same molecule, the EC50 at F508delCFTR [1] and on F508delCFTR [2] (with 2 μM co-corrector) was not below 10 µM throughout. Moreover, the “Maximum % activity (with co-corrector)” value on F508delCFTR [2] (setting [3]) is listed as “+ (<150)”.

Turning to `COc1cccc2c1CCC2C(=O)NS(=O)(=O)c1cccnc1` (centres unmarked) [III-81], the Emax on F508delCFTR [1] (normalized to positive control) is less than 50%. Also, the EC50 at F508delCFTR [1] and on F508delCFTR [2] (with 2 μM co-corrector) was not below 10 µM each time. Besides, the “Maximum % activity (with co-corrector)” value at F508delCFTR [2] (setting [3]) is “+ (<150)”.

Consider `COc1cccc2c1CCC2C(=O)NS(=O)(=O)c1ncccc1C(=O)N(C)C` (centres unmarked) [III-82], for which the Emax on F508delCFTR [1] (normalized to positive control) was less than 50%. In addition, the concentration for a half-maximal effect (EC50) at F508delCFTR [1] and at F508delCFTR [2] (with 2 μM co-corrector) was not below 10 µM throughout. For the same molecule, on F508delCFTR [2] (setting [3]), the “Maximum % activity (with co-corrector)” value was “+ (<150)”.

`COc1cccc2c1CCC2C(=O)NS(=O)(=O)c1cccnc1C#N` (centres unmarked) [III-83] gave an Emax on F508delCFTR [1] (normalized to positive control) of less than 50%. The 50% effective concentration (EC50) on F508delCFTR [1] and on F508delCFTR [2] (with 2 μM co-corrector) was not below 10 µM each time. Besides, the “Maximum % activity (with co-corrector)” value on F508delCFTR [2] (setting [3]) is reported as “+ (<150)”.

`COc1cccc2c1CCC2C(=O)NS(=O)(=O)c1ccccn1` (centres unmarked) [III-84] gave an Emax at F508delCFTR [1] (normalized to positive control) of less than 50%. Moreover, the concentration for a half-maximal effect (EC50) at F508delCFTR [1] and on F508delCFTR [2] (with 2 μM co-corrector) was not below 10 µM in each case. The “Maximum % activity (with co-corrector)” value on F508delCFTR [2] (setting [3]) is on record as “+ (<150)”.

In the case of `COc1ccc(-c2cccc3c2CCC3C(=O)NS(=O)(=O)c2ccccc2C)cn1` (centres unmarked) [III-85], at F508delCFTR [1] (normalized to positive control), the maximal effect (Emax) is less than 50%. Moreover, the EC50 at F508delCFTR [1] was not below 10 µM; at F508delCFTR [2] (with 2 μM co-corrector) it was 3 to 10 µM. At F508delCFTR [2] (setting [3]), the “Maximum % activity (with co-corrector)” value is “++ (≥150 and <350)”.

On to `Cc1ccccc1S(=O)(=O)NC(=O)C1CCc2c(-c3ccc(N4CCCCC4)nc3)cccc21` (centres unmarked) [III-86], for which, on F508delCFTR [1] (normalized to positive control), the Emax fell in the range of 50 to 150%. Also, the EC50 on F508delCFTR [1] is 3 to 10 µM; at F508delCFTR [2] (with 2 μM co-corrector), less than 3 µM. Also, the “Maximum % activity (with co-corrector)” value at F508delCFTR [2] (setting [3]) is “++ (≥150 and <350)”.

With `Cc1ccccc1S(=O)(=O)NC(=O)C1CCc2c(-c3ccc(N4CCN(C)CC4)nc3)cccc21` (centres unmarked) [III-87], on F508delCFTR [1] (normalized to positive control), the Emax was less than 50%. For the same molecule, the EC50 on F508delCFTR [1] and at F508delCFTR [2] (with 2 μM co-corrector) was not below 10 µM in each case. The “Maximum % activity (with co-corrector)” value at F508delCFTR [2] (setting [3]) is listed as “+ (<150)”.

In the case of `Cc1ccccc1S(=O)(=O)NC(=O)C1CCc2c(-c3cccnc3C)cccc21` (centres unmarked) [III-88], the Emax at F508delCFTR [1] (normalized to positive control) is less than 50%. Besides, the EC50 on F508delCFTR [1] and on F508delCFTR [2] (with 2 μM co-corrector) was not below 10 µM each time. For the same molecule, on F508delCFTR [2] (setting [3]), the “Maximum % activity (with co-corrector)” value is listed as “+ (<150)”.

On to `Cc1ccccc1S(=O)(=O)NC(=O)C1CCc2c(-c3ccc(F)nc3)cccc21` (centres unmarked) [III-89], for which the Emax at F508delCFTR [1] (normalized to positive control) was less than 50%. In addition, the half-maximal effective concentration (EC50) on F508delCFTR [1] was not below 10 µM; at F508delCFTR [2] (with 2 μM co-corrector) it was 3 to 10 µM. Besides, at F508delCFTR [2] (setting [3]), the “Maximum % activity (with co-corrector)” value was “++ (≥150 and <350)”.

In the case of `Cc1ccccc1S(=O)(=O)NC(=O)C1CCc2c(-c3ccc(N(C)C)nc3)cccc21` (centres unmarked) [III-90], at F508delCFTR [1] (normalized to positive control), the Emax is less than 50%. In addition, the 50% effective concentration (EC50) at F508delCFTR [1] and on F508delCFTR [2] (with 2 μM co-corrector) was not below 10 µM in each case. Moreover, the “Maximum % activity (with co-corrector)” value on F508delCFTR [2] (setting [3]) was “+ (<150)”.

With `Cc1ccccc1S(=O)(=O)NC(=O)C1CCc2c(-c3cncc(F)c3)cccc21` (centres unmarked) [III-91], the EC50 at F508delCFTR [1] (CSE-HRP assay) and on F508delCFTR [2] (setting [5]) was not below 10 µM each time. The Emax on F508delCFTR [1] (setting [4]) was less than 50%. The “Maximum % activity (with co-corrector)” value on F508delCFTR [2] (setting [6]) is “+ (<150)”.

Consider `Cc1cncc(-c2cccc3c2CCC3C(=O)NS(=O)(=O)c2ccccc2C)c1` (centres unmarked) [III-92], for which the EC50 at F508delCFTR [1] (CSE-HRP assay) and at F508delCFTR [2] (setting [5]) was not below 10 µM each time. The Emax on F508delCFTR [1] (setting [4]) is less than 50%. Besides, at F508delCFTR [2] (setting [6]), the “Maximum % activity (with co-corrector)” value is on record as “+ (<150)”.

For `Cc1ccccc1S(=O)(=O)NC(=O)C1CCc2c(-c3ccnc(F)c3)cccc21` (centres unmarked) [III-93], the EC50 at F508delCFTR [1] (CSE-HRP assay) is not below 10 µM; at F508delCFTR [2] (setting [5]), 3 to 10 µM. The molecule further returned an Emax at F508delCFTR [1] (setting [4]) of less than 50%. In addition, at F508delCFTR [2] (setting [6]), the “Maximum % activity (with co-corrector)” value was “++ (≥150 and <350)”.
